One experiment has as its target KIT (Homo sapiens, UniProt P10721). The experiment can be described thus: KIT in vitro biochemical kinase study (Caliper EZ Reader). To be noted: FAM-labeled polypeptide, Caliper EZ Reader II; read-out: Enzymatic experiment KIT IC50. Here is the method: (§1) In the present invention, the inhibitory activity of compounds against the CSF-1R activity was determined by using CSF-1R ADP-Glo assay. The compound-mediated inhibition effect was achieved by inhibiting the production of ADP from consumption of ATP, and the activities of compounds were evaluated by using the ADP-Glo kit (Promega, cat. No. V9101). The specific experimental process was as follows: • 1. The kinase reaction performed in the present invention was carried out in a 384-well plate (Perkinelmer, cat. No. 6007290), and 3.95 nM of CSF-1R, 500 μM of ATP and 0.2 mg/mL of polypeptide (Poly (Glu4, Try1), Sigma, cat. No. P0275) were respectively weighed and added to each well: • 2. following reagents were then added to each well to reach the final reaction system: 40 mM Tris, pH 7.5, 20 mM MgCl2, 0.01% Triton X-100, 0.1 mg/mL BSA, 2.5 mM DTT and 0.1% DMSO; • 3. the reaction was conducted at 30° C. for 60 min; • 4. then an equal volume of stop solution (ADP-Glo) was added to the kinase reaction system; • 5. the mixed solution was incubated at 25° C. for 60 min, and the kinase reaction was then terminated; • 6. a two-fold volume of detection reagent was then added to each well; • 7. the mixed solution was incubated at 25° C. for 30 min; • 8. the compound IC50 value was measured by using a plate reader (Tecan, M1000) and a four-parameter curve was generated in Graphpad Prism. B. KIT/PDGFRA In Vitro Biochemical Kinase Study • 1. Preparation of 1-fold kinase buffer and stop solution • 1.1 1-fold kinase buffer: 50 mM HEPES, pH 7.5, 0.0015% Brij-35. • 1.2 stop solution: 100 mM HEPES, pH 7.5, 0.015% Brij-35, 0.2% Coating Reagent #3 50 mM EDTA • 2. Preparation of compound solution • 2.1 Dilution of compound solution • 1) The final concentration of the compound solution was 40 μM. and the concentration of the prepared stock solution was 50 times of the final concentration, i.e., 2 mM. • 2) 80 μL of 100% DMSO was added to the second well of the 96-well plate, then 20 μL of 10 mM compound solution was added, and thereby 2 mM compound solution was prepared, 60 μL of 100% DMSO was added to other wells, 20 μL of compound was taken from the second well, added to the third well and diluted by 4 times. […]

The next experiment concerns the target T1, CSF-1R (Homo sapiens, UniProt P07333).
T1 construct: 3.95 nM of CSF-1R, 500 μM of ATP and 0.2 mg/mL of polypeptide
The experiment in a line: CSF-1R in vitro biochemical kinase study (ADP-Glo assay). The settings on record: 3.95 nM CSF-1R, 500 μM ATP, 30° C. 60 min, read-out: Enzymatic experiment CSF-1R IC50. Here is the method: In the present invention, the inhibitory activity of compounds against the CSF-1R activity was determined by using CSF-1R ADP-Glo assay. The compound-mediated inhibition effect was achieved by inhibiting the production of ADP from consumption of ATP, and the activities of compounds were evaluated by using the ADP-Glo kit (Promega, cat. No. V9101). The specific experimental process was as follows: • 1. The kinase reaction performed in the present invention was carried out in a 384-well plate (Perkinelmer, cat. No. 6007290), and 3.95 nM of CSF-1R, 500 μM of ATP and 0.2 mg/mL of polypeptide (Poly (Glu4, Try1), Sigma, cat. No. P0275) were respectively weighed and added to each well: • 2. following reagents were then added to each well to reach the final reaction system: 40 mM Tris, pH 7.5, 20 mM MgCl2, 0.01% Triton X-100, 0.1 mg/mL BSA, 2.5 mM DTT and 0.1% DMSO; • 3. the reaction was conducted at 30° C. for 60 min; • 4. then an equal volume of stop solution (ADP-Glo) was added to the kinase reaction system; • 5. the mixed solution was incubated at 25° C. for 60 min, and the kinase reaction was then terminated; • 6. a two-fold volume of detection reagent was then added to each well; • 7. the mixed solution was incubated at 25° C. for 30 min; • 8. the compound IC50 value was measured by using a plate reader (Tecan, M1000) and a four-parameter curve was generated in Graphpad Prism. B. KIT/PDGFRA In Vitro Biochemical Kinase Study • 1. Preparation of 1-fold kinase buffer and stop solution • 1.1 1-fold kinase buffer: 50 mM HEPES, pH 7.5, 0.0015% Brij-35. • 1.2 stop solution: 100 mM HEPES, pH 7.5, 0.015% Brij-35, 0.2% Coating Reagent #3 50 mM EDTA • 2. Preparation of compound solution • 2.1 Dilution of compound solution • 1) The final concentration of the compound solution was 40 μM. and the concentration of the prepared stock solution was 50 times of the final concentration, i.e., 2 mM. • 2) 80 μL of 100% DMSO was added to the second well of the 96-well plate, then 20 μL of 10 mM compound solution was added, and thereby 2 mM compound solution was prepared, 60 μL of 100% DMSO was added to other wells, 20 μL of compound was taken from the second well, added to the third well and diluted by 4 times. This serial 4-time dilution was conducted in sequence for the total of 10 concentrations. • 2.2 5-fold compound solution transferred to a reaction plate • 1) 10 μL of solution was taken from each well of the above 96-well plate and added to another 96-well plate, and 90 μL of kinase buffer was added. • 2) 5 μL of solution was taken from the above 96-well plate and added to a 384-well reaction plate. • 2.3 Kinase reaction • 1) KIT/PDGFRA kinase was added to the 1-fold kinase buffer solution to obtain a 2.5-fold kinase solution. • 2) FAM-labeled polypeptide and ATP were added to the 1-fold kinase buffer solution to obtain a 2.5-fold substrate solution. • 3) 10 μL of 2.5-fold kinase solution was added to the 384-well reaction plate, which already contained 5 μL of 5-fold compound in 10% DMSO. And the mixed solution was incubated at room temperature for 10 min. • 4) 10 μL of 2.5-fold substrate solution was added to the 384-well reaction plate. • 5) Kinase reaction and termination: the mixed solution was incubated at 28° C. for a certain period of time, and 25 μL of stop solution was added to stop the reaction. • 2.4 Data reading of Caliper EZ Reader II • 2.5 Calculation of percent inhibition and IC50 • 1) Percent conversion data were copied from the Caliper EZ Reader. • 2) Percent conversion was converted into percent inhibition data, wherein, max referred to percent conversion of the DMSO control, and min referred to percent conversion of the negative control without kinase activity. Percent inhibition=(max−conversion)/(max−min)*100. • 3) The IC50 value was fitted with XLFit excel add-in version 5.4.0.8: Fitting formula: Y=Bottom+(Top−Bottom)/(1+(IC50/X)^HillSlope).
(In general: ADP-Glo first removes unused ATP, then detects ADP through luciferase.)

Another experiment concerns the target PDGFRA (Homo sapiens, UniProt P16234). The experiment can be described thus: PDGFRA in vitro biochemical kinase study (Caliper EZ Reader). The settings on record: FAM-labeled polypeptide, Caliper EZ Reader II; read-out: Enzymatic experiment PDGFRA IC50. Here is the method:
as §1

For experiment [1], the system named is M-NFS-60 mouse myeloid leukemia lymphocytes. The experiment in a line: CSF-1R-related cell proliferation experiment (Cell Titer Glo). In kind it is cell-based. The settings on record: 72 h, M-NFS-60 cells, 3 days, CTG. How it is done: Functional effects of compounds on cell proliferation were evaluated by using Cell Titer Glo (CTG) study in the present invention. M-NFS-60 mouse myeloid leukemia lymphocytes (cat. No. CCBJ078) from National Institutes For Food and Drug Control were cultured in the incubator under conditions of RPMI 1640 (Gibco, cat. No. 11875-119), 10% fetal bovine serum (Gibco, 10099-141), human 10 ng/mL M-CSF macrophage colony-stimulating factor (R&D, cat. No. MVN0915101), 37° C. and 5% CO2. Since ATP is an index for viable cell metabolism, CTG (Promega, #G7573) reagent is a homogeneous detection method for detecting the number of viable cells in the culture by quantifying ATP. Therefore, compound-mediated inhibition for cell proliferation/survival was evaluated by quantifying ATP in cells, and the specific experimental process was as follows: • 1. The cells were plated into a tissue-culture-medium-treated 96-well plate (Costar #3904) with 5,000 cells/well/80 μL fresh culture medium: • 2. 24 hours later, 10 μL culture medium containing testing compound with 10-fold of final concentration was added to each well; • 3. 10 μL of culture medium containing M-CSF with 10-fold of the final concentration was then added to each well: • 4. dosage effect was evaluated by testing the 3-fold serial dilutions of the compound; • 5. after the cells were incubated for 3 days at 37° C. and 5% CO2, the inhibition on cell survival was quantified after 50 μL of CTG was added and the luminescence assay was performed; • 6. the compound concentration leading to half maximal inhibitory (IC50) and the compound concentration leading to absolute half maximal inhibitory (Absolute IC50) were measured by a plate reader (M1000, Tecan) and a four-parameter curve fit in Graphpad Prism 7. D. CSF-1R-Related Cell Proliferation Experiment
(In general: ATP-based viability assays read luminescence as a measure of living cells.)

The test system of experiment [2] is M-07e human cytomegalic leukemia cells. The experiment can be described thus: KIT-related cell proliferation experiment (Cell Titer Glo). Type of experiment: cell-based. To be noted: 72 h, M-07e cells, SCF, 3 days, CTG, read-out: Cytological experiment KIT IC50. Here is the method: (§2) Functional effects of compounds on the proliferation of several cell lines were evaluated by Cell Titer Glo (CTG) studies in the present invention, and effects of the compounds on the proliferation of different cells were evaluated to determine the selectivity degree of the compounds. In the study, M-07e human cytomegalic leukemia cells (cat. No. CBP60791) from Nanjing Kebai Biotechnology Co., Ltd. were cultured in an incubator under conditions of RPMI1640 (Gibco, cat. No. 11875-119), 20% fetal bovine serum (Gibco, 10099-141), human 10 ng/mL GM-CSF granulocyte macrophage colony-stimulating factors (R&D, cat. No. 215-GM-010), 37° C. and 5% CO2; and Kasumi-1 human acute myeloblastic leukemia cells (cat. No. CBP60524) were cultured in an incubator under conditions of RPMI1640 (Gibco, cat. No. 11875-119), 20% fetal bovine serum (Gibco, 10099-141), 37° C. and 5% CO2; NCI-H1703 human non-small cell lung squamous carcinoma cells (cat. No. CBP60115) were cultured in an incubator under conditions of RPMI1640 (Gibco, cat. No. 11875-119), 10% fetal bovine serum (Gibco, 10099-141), 37° C. and 5% CO2; and MV-4-11 human acute monocytic leukemia cells (cat. No. CBP60522) were cultured in an incubator under conditions of IMDM (Invitrogen, cat. No. 12440053), 20% fetal bovine serum (Gibco, 10099-141), 37° C. and 5% CO2. Since ATP is an index for viable cell metabolism, CTG (Promega, #G7573) reagent is a homogeneous detection method for detecting the number of viable cells in the culture by quantifying ATP. Therefore, compound-mediated inhibition for cell proliferation/survival was evaluated by quantifying ATP content in cells, and the specific experimental process was as follows.
I) M-07e Human Cytomegalic Leukemia Cell: • 1. The cells were plated into a tissue-culture-medium-treated 96-well plate (Costar #3904) with 3500 cells/well/80 μL fresh culture medium, and cultured for 24 hrs; • 2. the next day, 10 μL of culture medium containing testing compound with 10-fold of final concentration was added to each well; • 3.

The subject of experiment [3] is NCI-H1703 human non-small cell lung squamous carcinoma cells. The experiment in a line: PDGFRA-related cell proliferation experiment (Cell Titer Glo). In kind it is cell-based. To be noted: 72 h, 3 days, CTG, read-out: Cytological experiment PDGFRA IC50. How it is done:
as §2
II) NCI-H1703 Human Non-Small Cell Lung Squamous Carcinoma Cell • 1.

Experiment [4] has as its system MV-4-11 human acute monocytic leukemia cells. The experiment can be described thus: FLT3-related cell proliferation experiment (Cell Titer Glo). In kind it is cell-based. The settings on record: MV4-11, 72 h, MV-4-11 cells, 3 days, CTG, read-out: Cytological experiment FLT3 IC50. Here is the method: as §2
III) MV-4-11 Human Acute Monocytic Leukemia Cell • 1.

Setting [5] is: absolute half maximal inhibitory concentration, read-out: Cytological experiment CSF-1R Absolute IC50.
Setting [6] is: read-out: Cytological experiment CSF1R IC50.

Drawing on US11180495B2 (Abbisko Therapeutics Co., Ltd., priority 2017, dated 2021), this text covers IC50 for 3 compounds.

pIC50: −log10 of the molar value. Where two headings read alike, the source gives them in different places.

T1 sequence (P07333 20-972): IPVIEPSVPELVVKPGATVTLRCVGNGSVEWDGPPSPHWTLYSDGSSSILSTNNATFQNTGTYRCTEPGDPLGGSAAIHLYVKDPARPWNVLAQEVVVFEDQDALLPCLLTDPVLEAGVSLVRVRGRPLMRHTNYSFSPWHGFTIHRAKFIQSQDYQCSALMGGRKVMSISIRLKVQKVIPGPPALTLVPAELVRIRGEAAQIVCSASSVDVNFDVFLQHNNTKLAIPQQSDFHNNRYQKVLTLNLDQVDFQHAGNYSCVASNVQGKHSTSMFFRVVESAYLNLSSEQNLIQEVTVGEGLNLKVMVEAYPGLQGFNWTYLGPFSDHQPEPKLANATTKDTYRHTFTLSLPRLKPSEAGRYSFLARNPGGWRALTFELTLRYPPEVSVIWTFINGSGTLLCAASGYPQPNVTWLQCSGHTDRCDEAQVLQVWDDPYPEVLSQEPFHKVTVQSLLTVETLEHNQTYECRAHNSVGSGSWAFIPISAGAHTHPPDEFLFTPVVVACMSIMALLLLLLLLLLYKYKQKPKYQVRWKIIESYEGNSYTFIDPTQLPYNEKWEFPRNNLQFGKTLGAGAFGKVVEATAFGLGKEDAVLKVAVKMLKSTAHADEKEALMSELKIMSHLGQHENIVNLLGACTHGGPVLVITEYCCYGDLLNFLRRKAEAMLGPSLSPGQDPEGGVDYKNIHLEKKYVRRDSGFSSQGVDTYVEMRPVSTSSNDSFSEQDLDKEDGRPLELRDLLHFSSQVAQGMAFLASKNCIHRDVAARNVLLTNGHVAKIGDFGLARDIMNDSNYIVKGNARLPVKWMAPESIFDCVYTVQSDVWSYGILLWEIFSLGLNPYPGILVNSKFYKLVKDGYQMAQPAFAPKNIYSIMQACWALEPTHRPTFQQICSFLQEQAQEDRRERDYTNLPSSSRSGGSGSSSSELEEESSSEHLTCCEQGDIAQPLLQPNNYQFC
Sequence of KIT (P10721 26-976): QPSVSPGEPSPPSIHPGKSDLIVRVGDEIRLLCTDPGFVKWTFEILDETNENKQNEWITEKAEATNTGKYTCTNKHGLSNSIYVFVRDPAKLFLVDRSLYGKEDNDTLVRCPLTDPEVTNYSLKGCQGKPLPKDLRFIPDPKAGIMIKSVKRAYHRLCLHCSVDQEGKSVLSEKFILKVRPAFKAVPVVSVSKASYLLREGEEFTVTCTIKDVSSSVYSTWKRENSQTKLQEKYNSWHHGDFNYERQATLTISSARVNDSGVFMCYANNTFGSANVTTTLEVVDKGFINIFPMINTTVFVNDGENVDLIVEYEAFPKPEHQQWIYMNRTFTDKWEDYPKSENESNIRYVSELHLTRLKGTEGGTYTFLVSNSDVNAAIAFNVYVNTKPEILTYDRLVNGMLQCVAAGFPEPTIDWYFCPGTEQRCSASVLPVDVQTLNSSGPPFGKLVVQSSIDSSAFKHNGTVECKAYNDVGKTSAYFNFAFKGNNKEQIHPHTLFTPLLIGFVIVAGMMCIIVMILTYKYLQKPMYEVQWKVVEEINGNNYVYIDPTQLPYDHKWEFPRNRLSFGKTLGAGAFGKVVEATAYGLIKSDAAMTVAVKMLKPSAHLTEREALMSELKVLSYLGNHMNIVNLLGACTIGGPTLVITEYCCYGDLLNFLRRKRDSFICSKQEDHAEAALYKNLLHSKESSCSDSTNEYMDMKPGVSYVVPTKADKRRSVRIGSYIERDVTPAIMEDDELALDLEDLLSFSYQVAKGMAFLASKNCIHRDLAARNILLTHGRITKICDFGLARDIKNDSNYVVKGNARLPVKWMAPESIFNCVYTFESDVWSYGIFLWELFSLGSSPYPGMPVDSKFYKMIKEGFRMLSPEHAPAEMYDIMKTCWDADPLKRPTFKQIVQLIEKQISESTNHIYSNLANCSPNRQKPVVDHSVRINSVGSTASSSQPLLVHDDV
Sequence of PDGFRA (P16234 24-1089): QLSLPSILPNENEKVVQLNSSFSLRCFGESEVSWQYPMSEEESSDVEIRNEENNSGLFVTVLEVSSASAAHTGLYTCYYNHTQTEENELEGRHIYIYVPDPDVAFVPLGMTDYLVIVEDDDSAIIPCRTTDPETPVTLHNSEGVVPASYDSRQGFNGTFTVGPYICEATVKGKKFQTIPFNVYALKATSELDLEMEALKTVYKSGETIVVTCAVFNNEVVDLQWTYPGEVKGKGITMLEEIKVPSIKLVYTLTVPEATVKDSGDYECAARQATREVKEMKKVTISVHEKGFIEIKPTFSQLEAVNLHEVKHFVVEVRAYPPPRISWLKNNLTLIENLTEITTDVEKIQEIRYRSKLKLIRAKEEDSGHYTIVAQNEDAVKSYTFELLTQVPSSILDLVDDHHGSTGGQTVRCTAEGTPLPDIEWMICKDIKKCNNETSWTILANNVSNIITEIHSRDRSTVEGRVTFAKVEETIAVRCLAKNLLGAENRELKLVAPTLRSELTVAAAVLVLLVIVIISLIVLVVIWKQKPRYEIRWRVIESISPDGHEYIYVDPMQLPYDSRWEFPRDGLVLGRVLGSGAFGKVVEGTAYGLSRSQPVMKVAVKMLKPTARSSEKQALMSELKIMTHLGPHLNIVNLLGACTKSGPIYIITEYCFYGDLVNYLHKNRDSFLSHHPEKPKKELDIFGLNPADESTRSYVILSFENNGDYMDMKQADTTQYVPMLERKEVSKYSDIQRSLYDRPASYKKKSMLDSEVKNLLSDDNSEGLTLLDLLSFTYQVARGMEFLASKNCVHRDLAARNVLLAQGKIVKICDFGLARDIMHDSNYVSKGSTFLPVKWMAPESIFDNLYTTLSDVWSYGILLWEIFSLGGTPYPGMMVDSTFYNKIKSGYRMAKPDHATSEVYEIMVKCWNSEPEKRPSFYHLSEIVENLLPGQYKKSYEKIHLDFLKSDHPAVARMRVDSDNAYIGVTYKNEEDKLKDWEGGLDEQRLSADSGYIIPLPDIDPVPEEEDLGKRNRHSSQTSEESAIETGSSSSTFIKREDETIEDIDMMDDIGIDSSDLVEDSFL

Usually pIC50 stands for the IC50 on a negative log10 scale, so that one unit is a factor of ten. `Cc1nc(-c2cnc(NC(C)C)[nH]c2=O)ccc1Cc1c[nH]c2ncccc12` [Example 1, 5-(5-((1H-pyrrolo[2,3-b]pyridin-3-yl)methyl)-6-methylpyridin-2-yl)-2-(isopropylamino)pyrimidin-4(3H)-one]: the pIC50 at KIT was 6.61; on CSF-1R it was 7.56; on PDGFRA, 5.16; in experiment [1] (setting [5]), 7.73; in experiment [1] (setting [6]), 7.33.

Consider `Cc1nc(-c2cnc(NC(C)C)n(C)c2=O)ccc1Cc1c[nH]c2ncc(Cl)cc12` [Example 10, 5-(5-((5-chloro-1H-pyrrolo[2,3-b]pyridin-3-yl)methyl)-6-methylpyridin-2-yl)-2-(isopropylamino)-3-methylpyrimidin-4(3H)-one], for which the negative logarithm of the IC50 (pIC50) on KIT is 7.86; on CSF-1R, 7.49; at PDGFRA, 6.17; in experiment [1] (setting [5]) it was 7.50; in experiment [1] (setting [6]), 7.40.

For the compound `CCN1CCCn2c1ncc(-c1ccc(Cc3c[nH]c4ncccc34)c(C)n1)c2=O` [Example 19, 3-(5-((1H-pyrrolo[2,3-b]pyridin-3-yl)methyl)-6-methylpyridin-2-yl)-9-ethyl-6,7,8,9-tetrahydro-4H-pyrimido[1,2-a]pyrimidin-4-one], the negative-log IC50 (pIC50) in experiment [2] was 6.01; in experiment [3], 5.45; in experiment [1] (setting [5]) it was 7.25; in experiment [1] (setting [6]) it was 7.17; in experiment [4], 5.52.
